Experiments:
rat [1] = details: Carcinogenicity, fischer, Oral, Feed, dose end: 2 year, group: systemic, systemic / in life observation / clinical signs / urine
mouse [2] = details: Multigenerational reproductive toxicity study, cd1, Oral, Feed, dose end: 2 generation
mouse [3] = details: Subchronic oral toxicity in rodents, b6c3f1, Feed, dose end: 13 week, group: systemic
mouse [4] = details: Carcinogenicity, b6c3f1, Oral, Feed, dose end: 2 year, group: systemic
rat [5] = details: Subchronic oral toxicity in rodents, fischer, Feed, dose end: 13 week, group: systemic
mouse [6] = details: Subchronic oral toxicity in rodents, cd1, Gavage/Intubation, dose end: 13 week, group: systemic
rat [7] = details: Subchronic oral toxicity in rodents, sprague dawley, Gavage/Intubation, dose end: 13 week, group: systemic
rat [8] = details: Sub-acute repeat dose toxicity; sprague dawley; Oral; Gavage/Intubation; dose end: 6 week; group: systemic; systemic / organ weight / liver / absolute + systemic / organ weight / liver / relative to body weight + systemic / pathology microscopic / …
primate = details: Subchronic oral toxicity in nonrodent, macaque, Gavage/Intubation, dose end: 7 week, group: systemic, systemic / clinical chemistry / alkaline phosphatase (alp/alk) / alkaline phosphatase (alp/alk) + systemic / organ weight / liver / absolute…
rat [9] = details: Subchronic oral toxicity in rodents, sprague dawley, Feed, dose end: 90 day, group: systemic, systemic / pathology microscopic / kidney / basophilia + systemic / pathology microscopic / kidney / dilatation + systemic / pathology …
rat [10] = details: Combined chronic toxicity/carcinogenicity, sprague dawley, Oral, Feed, dose end: 2 year, group: systemic
dog = details: Subchronic oral toxicity in nonrodent, beagle, Feed, dose end: 13 week, group: systemic, systemic / in life observation / body weight / body weight + systemic / in life observation / body weight / body weight gain + systemic / …
rat [11] = details: Prenatal developmental toxicity study, sprague dawley, Oral, Gavage/Intubation, dose end: 15 GD
[12] = discoloration + systemic / pathology microscopic / kidney / adenoma + systemic / …
[13] = group: offspring, systemic / in life observation / body weight / offspring (pup) weight
[14] = group: parental, systemic / in life observation / food consumption / food consumption
[15] = group: reproductive, reproductive / offspring survival early / live fetuses / live fetuses + reproductive / reproductive performance / fertility / fertility
[16] = systemic / in life observation / body weight / body weight + systemic / pathology microscopic / epididymis / atypia cellular + systemic / …
[17] = systemic / in life observation / clinical signs / urine, discoloration + systemic / pathology microscopic / adrenal gland / hyperplasia + …
[18] = systemic / in life observation / clinical signs / urine, discoloration
[19] = systemic / clinical chemistry / albumin / albumin + systemic / clinical chemistry / protein / protein + systemic / hematology / platelet / …
[20] = systemic / pathology microscopic / adrenal gland / vacuolization + systemic / pathology microscopic / liver / eosinophilic focus + systemic…
[21] = systemic / clinical chemistry / [other] / [other] + systemic / clinical chemistry / alanine aminotransferase (alt/sgpt) / alanine …
[22] = systemic / hematology / mean corpuscular (cell) volume (mcv) / mean corpuscular (cell) volume (mcv) + systemic / hematology / mean …
[23] = systemic / pathology microscopic / kidney / dilatation + systemic / pathology microscopic / kidney / fibrosis + systemic / clinical …
[24] = group: developmental, developmental / developmental malformation / bone / incomplete ossification + developmental / developmental malformation / interparietal / …
[25] = group: maternal, systemic / in life observation / food consumption / food consumption + systemic / pathology gross / kidney / enlarged

With `O=C1CN(/N=C/c2ccc([N+](=O)[O-])o2)C(=O)N1` [Nitrofurantoin] the LEL (rat [1]; discoloration) was 30 mg/kg/day, the NEL (rat [1]; discoloration) was under 30 mg/kg/day and the LOAEL (rat [1]; [12]) was over 60 mg/kg/day. For the same compound, the NOAEL (rat [1]; [12]) was at least 60 mg/kg/day, the LEL (mouse [2]; [13]) was 99.2 mg/kg/day and the LOAEL (mouse [2]; [13]) was over 213 mg/kg/day. The NEL (mouse [2]; [13]) was 43.8 mg/kg/day, the NOAEL (mouse [2]; [13]) was at least 213 mg/kg/day and the LEL (mouse [2]; [14]) was 164 mg/kg/day. The LOAEL (mouse [2]; [14]) was over 164 mg/kg/day, the NEL (mouse [2]; [14]) was 88.7 mg/kg/day and the NOAEL (mouse [2]; [14]) was at least 164 mg/kg/day. It also gave an LEL (mouse [2]; [15]) of 213 mg/kg/day, an LOAEL (mouse [2]; [15]) of over 213 mg/kg/day and an NEL (mouse [2]; [15]) of 99.2 mg/kg/day. It also gave an NOAEL (mouse [2]; [15]) of at least 213 mg/kg/day, an NOAEL (mouse [3]; systemic / in life observation / body weight / body weight + systemic / pathology microscopic / ovary / necrosis + systemic / in life …) of 375 mg/kg/day and an LOAEL (mouse [3]; systemic / in life observation / body weight / body weight + systemic / pathology microscopic / ovary / necrosis + systemic / pathology …) of 750 mg/kg/day. For the same compound, the LEL (mouse [3]; systemic / pathology microscopic / testes / aspermatogenesis + systemic / pathology microscopic / testes / degeneration) was 195 mg/kg/day, the NEL (mouse [3]; systemic / pathology microscopic / testes / aspermatogenesis + systemic / pathology microscopic / testes / degeneration + systemic / in life…) was 90 mg/kg/day and the LOAEL (mouse [4]; [16]) was 570 mg/kg/day. For the same compound, the NOAEL (mouse [4]; [16]) was 300 mg/kg/day, the LEL (mouse [4]; [17]) was 280 mg/kg/day and the NEL (mouse [4]; [17]) was under 280 mg/kg/day. The NOAEL (rat [5]; systemic / in life observation / body weight / body weight + systemic / in life observation / clinical signs / urine, discoloration + …) was 65 mg/kg/day, the LOAEL (rat [5]; systemic / in life observation / body weight / body weight + systemic / pathology microscopic / testes / degeneration) was 125 mg/kg/day and the LEL (rat [5]; [18]) was 30 mg/kg/day. For the same compound, the NEL (rat [5]; [18]) was under 30 mg/kg/day.

Work on `CCc1cc(SCc2sc(-c3ccc(C(F)(F)F)cc3)nc2CN2CCN(c3ccc(OC)cc3)CC2)ccc1OCC(=O)O` yielded an LOAEL (mouse [6]; [19]) of over 1000 mg/kg/day, an NOAEL (mouse [6]; [19]) of at least 1000 mg/kg/day and an LEL (mouse [6]; [20]) of 10 mg/kg/day. For the same compound, the NEL (mouse [6]; [20]) was under 10 mg/kg/day, the LOAEL (rat [7]; [21]) was over 1000 mg/kg/day and the NOAEL (rat [7]; [21]) was at least 1000 mg/kg/day. It also gave an LEL (rat [7]; [22]) of 30 mg/kg/day, an NEL (rat [7]; [22]) of under 30 mg/kg/day and an LEL (rat [8]) of 5 mg/kg/day. For the same compound, the LOAEL (rat [8]) was over 100 mg/kg/day, the NEL (rat [8]) was under 5 mg/kg/day and the NOAEL (rat [8]) was at least 100 mg/kg/day. It also gave an LEL (primate) of 5 mg/kg/day, an LOAEL (primate) of over 100 mg/kg/day and an NEL (primate) of under 5 mg/kg/day. For the same compound, the NOAEL (primate) was at least 100 mg/kg/day.

`CCNc1nc(NC(C)C)[nH]c(=O)n1` [2-Hydroxyatrazine] gave an LEL (rat [9]) of 18.9 mg/kg/day, an LOAEL (rat [9]) of 18.9 mg/kg/day and an NEL (rat [9]) of 6.3 mg/kg/day. For the same compound, the NOAEL (rat [9]) was 6.3 mg/kg/day, the LOAEL (rat [10]; systemic / pathology microscopic / kidney / dilatation + systemic / pathology microscopic / kidney / fibrosis) was 7.75 mg/kg/day and the NEL (rat [10]; [23]) was 0.962 mg/kg/day. The NOAEL (rat [10]; [23]) was 0.962 mg/kg/day, the LEL (rat [10]; systemic / pathology microscopic / kidney / dilatation + systemic / pathology microscopic / kidney / fibrosis + systemic / pathology gross…) was 7.75 mg/kg/day and the LEL (dog) was 59.6 mg/kg/day. For the same compound, the LOAEL (dog) was 59.6 mg/kg/day, the NEL (dog) was 5.8 mg/kg/day and the NOAEL (dog) was 5.8 mg/kg/day. For the same compound, the LEL (rat [11]; [24]) was 125 mg/kg/day, the LOAEL (rat [11]; [24]) was 125 mg/kg/day and the NEL (rat [11]; [24]) was 25 mg/kg/day. For the same compound, the NOAEL (rat [11]; [24]) was 25 mg/kg/day, the LOAEL (rat [11]; group: maternal, systemic / in life observation / food consumption / food consumption) was 125 mg/kg/day and the LEL (rat [11]; [25]) was 125 mg/kg/day. The NEL (rat [11]; [25]) was 25 mg/kg/day and the NOAEL (rat [11]; [25]) was 25 mg/kg/day.

Reference: EPA's ToxRefDB 2
